Measured values as given in US20260000674A1, “PHARMACEUTICAL COMPOSITION” (GEXVal Inc., priority 2022, published 2026).
Counter-ions that a name gives are not always drawn.

System: dermatitis in psoriasis model mice
Assay: Auricular thickening in imiquimod-induced psoriasis model mice (Test Examples 1 to 7)
Assay type: in vivo, male BALB/cCrSlc mice
Details: oral, Day 0 to Day 3
Procedure: 15 mg/ear of imiquimod cream (product name: Beselna cream, manufactured by Mochida Pharmaceutical Co., Ltd.) was repeatedly applied to the right auricle of male BALB/cCrSlc mice (9 weeks old) at once a day for 4 days (Day 0 to Day 3) to prepare psoriasis model mice. One hour before the imiquimod application, Vehicle (0.5% methylcellulose (hereinafter abbreviated as 0.5% MC)), 3 mg/kg body weight MSP (5-HT4 receptor agonist), 3 mg/kg body weight RZT (5-HT1 receptor agonist), 3 mg/kg body weight TDS (5-HT1 receptor agonist), 3 mg/kg body weight LCS (5-HT2 receptor agonist), and 10 mg/kg body weight APR (positive control) were orally administered at 10 mL/kg body weight each (Day 0 to Day 3) (n=6 per administration group). The auricular thickness was measured before the imiquimod cream application (Day 0) and approximately 24 hours after the final administration of each evaluation substance (Day 1 to Day 4), and the difference in auricular thickness (auricular thickening) between Day 0 and Day 4 was evaluated as the degree of inflammation. Day 0 was defined as the day on which the imiquimod cream application was started.
(§1) Psoriasis model mice were prepared by the same method as in Test Example 1, and Vehicle (0.5% MC), 3 mg/kg body weight MSP, 30 mg/kg body weight MSP, and 10 mg/kg body weight APR (positive control) were orally administered at 10 mL/kg body weight each (Day 0 to Day 3) (n=6 per administration group). The difference in auricular thickness (auricular thickening) between Day 0 and Day 4 was evaluated as the degree of inflammation.
as §1, with “weight MSP, 3 mg/kg body weight PCP, 10 mg/kg body weight PCP, 30 mg/kg” for “weight MSP, 30 mg/kg”, “body weight PCP, 3 mg/kg body weight VRG, 10 mg/kg body weight VRG, 30 mg/kg body weight VRG, and 10” for “body weight MSP, and 10”, “10 mL/kg each (Day” for “10 mL/kg body weight each (Day”
as §1, with “(0.5% MC), 30 mg/kg body” for “(0.5% MC), 3 mg/kg body”, “body weight CNP, 30 mg/kg body weight VRG, 30 mg/kg body weight CBP, and 10” for “body weight MSP, and 10”
as §1, with “MC),” for “MC), 3 mg/kg body weight MSP,”, “PCP, 30 mg/kg body weight CSP, 30 mg/kg body weight TGR,” for “MSP,”
Psoriasis model mice were prepared by the same method as in Test Example 1, and Vehicle (0.5% MC), 30 mg/kg body weight FCT, 30 mg/kg body weight UMP, 30 mg/kg body weight RLP, 30 mg/kg body weight RZP, 30 mg/kg body weight MSP, and 10 mg/kg body weight APR (positive control) were orally administered at 10 mL/kg body weight each (Day 0 to Day 3) (n=6 per administration group). The difference in auricular thickness (auricular thickening) between Day 0 and Day 4 was evaluated as the degree of inflammation.
Psoriasis model mice were prepared by the same method as in Test Example 1, and Vehicle (0.5% MC), 30 mg/kg body weight NRP, 30 mg/kg body weight CJ-033466, 30 mg/kg body weight RVP, 30 mg/kg body weight E-3620, 30 mg/kg body weight MSP, and 10 mg/kg body weight APR (positive control) were orally administered at 10 mL/kg body weight each (Day 0 to Day 3) (n=6 per administration group). […]

[1] = Test Example 3, FIG. 3, at all doses (3, 10 and 30 mg/kg body weight)
[2] = Test Example 5, FIG. 5, 30 mg/kg body weight
[3] = Test Example 1, FIG. 1, 3 mg/kg body weight
[4] = Test Example 6, FIG. 6, 30 mg/kg body weight
[5] = Test Example 4, FIG. 4, 30 mg/kg body weight
[6] = Test Example 7, FIG. 7, 30 mg/kg body weight

Prucalopride succinate [PCP]
auricular thickening (difference in auricular thickness between Day 0 and Day 4) compared with 0.5% MC [1]: significantly suppressed the auricular thickening at all doses
auricular thickening (difference in auricular thickness between Day 0 and Day 4) compared with 0.5% MC [2]: significantly suppressed the auricular thickening

Tandospirone citrate [TDS]
auricular thickening (difference in auricular thickness between Day 0 and Day 4) compared with 0.5% MC [3]: none of 3 mg/kg body weight RZT (5-HT1 receptor agonist) (comparative example), 3 mg/kg body weight TDS (5-HT1 receptor agonist) (comparative example), and 3 mg/kg body weight LCS (5-HT2 receptor agonist) (comparative example) suppressed the auricular thickening

CN(C)CCc1c[nH]c2ccc(Cn3cncn3)cc12 [RZT, Rizatriptan benzoate]
auricular thickening (difference in auricular thickness between Day 0 and Day 4) compared with 0.5% MC [3]: none of 3 mg/kg body weight RZT (5-HT1 receptor agonist) (comparative example), 3 mg/kg body weight TDS (5-HT1 receptor agonist) (comparative example), and 3 mg/kg body weight LCS (5-HT2 receptor agonist) (comparative example) suppressed the auricular thickening

COCCCN1CCC(c2nnc(-c3nn(C(C)C)c4ccccc34)o2)CC1 [UMP, Usmarapride]
auricular thickening (difference in auricular thickness between Day 0 and Day 4) compared with 0.5% MC [4]: significantly suppressed the auricular thickening

Cinitapride tartrate [CNP]
auricular thickening (difference in auricular thickness between Day 0 and Day 4) compared with 0.5% MC [5]: significantly suppressed the auricular thickening

COc1cc(N)c(Cl)cc1C(=O)NC1CCN(CCCOc2ccc(F)cc2)CC1OC (stereo not shown) [CSP, Cisapride]
auricular thickening (difference in auricular thickness between Day 0 and Day 4) compared with 0.5% MC [2]: significantly suppressed the auricular thickening

CC#C[C@H](C)Oc1cc(N)c(Cl)cc1C(=O)NC1C[C@H]2CC[C@@H](C1)N2C.Cl (stereo partly shown) [E-3620]
auricular thickening (difference in auricular thickness between Day 0 and Day 4) compared with 0.5% MC [6]: significantly suppressed the auricular thickening

Cc1cn2c(N)c(Cl)cc(C(=O)NCC3CCN(CC(C)C)CC3)c2n1 [CJ-033466]
auricular thickening (difference in auricular thickness between Day 0 and Day 4) compared with 0.5% MC [6]: significantly suppressed the auricular thickening

[H]/N=C(/NCCCCC)N/N=C/c1c[nH]c2ccc(OC)cc12 [TGR, Tegaserod maleate]
auricular thickening (difference in auricular thickness between Day 0 and Day 4) compared with 0.5% MC [2]: significantly suppressed the auricular thickening

COc1cc(N)c(Cl)cc1C(=O)N[C@@H]1CCN(CCCCCC(=O)O[C@H]2CN3CCC2CC3)C[C@@H]1OC [NRP, Naronapride hydrochloride]
auricular thickening (difference in auricular thickness between Day 0 and Day 4) compared with 0.5% MC [6]: significantly suppressed the auricular thickening

COCCCN1CC[C@@H](CNC(=O)c2cc(Cl)c(N)c3c2OC(C)(C)C3)[C@H](O)C1 [RVP, Revexepride]
auricular thickening (difference in auricular thickness between Day 0 and Day 4) compared with 0.5% MC [6]: significantly suppressed the auricular thickening

C[C@H]1CNCCc2ccc(Cl)cc21 [LCS, Lorcaserin hydrochloride]
auricular thickening (difference in auricular thickness between Day 0 and Day 4) compared with 0.5% MC [3]: none of 3 mg/kg body weight RZT (5-HT1 receptor agonist) (comparative example), 3 mg/kg body weight TDS (5-HT1 receptor agonist) (comparative example), and 3 mg/kg body weight LCS (5-HT2 receptor agonist) (comparative example) suppressed the auricular thickening

COc1cc(N)c(Cl)cc1C(=O)NC1CCN(Cc2ccccc2)CC1 [CBP, Clebopride malate]
auricular thickening (difference in auricular thickness between Day 0 and Day 4) compared with 0.5% MC [5]: significantly suppressed the auricular thickening

COC(=O)N1CCC(CN2CCC(CNC(=O)c3cccc4nc(C(C)C)[nH]c34)CC2)CC1 [FCT, Felcisetrag]
auricular thickening (difference in auricular thickness between Day 0 and Day 4) compared with 0.5% MC [4]: significantly suppressed the auricular thickening

COc1cc(N)c(Cl)cc1C(=O)NCC1CCN(CC[C@H](OC(N)=O)c2ccc(F)cc2)CC1.Cl [RLP, Relenopride hydrochloride]
auricular thickening (difference in auricular thickness between Day 0 and Day 4) compared with 0.5% MC [4]: significantly suppressed the auricular thickening

Mosapride citrate dihydrate [MSP]
auricular thickening (difference in auricular thickness between Day 0 and Day 4) compared with 0.5% MC [3]: significantly suppressed the auricular thickening
auricular thickening (difference in auricular thickness between Day 0 and Day 4) compared with 0.5% MC (Test Example 2, FIG. 2, 3 mg/kg body weight): significantly suppressed the auricular thickening in a dose-dependent manner
auricular thickening (difference in auricular thickness between Day 0 and Day 4) compared with 0.5% MC (Test Example 2, FIG. 2, 30 mg/kg body weight): significantly suppressed the auricular thickening in a dose-dependent manner
auricular thickening (difference in auricular thickness between Day 0 and Day 4) compared with 0.5% MC (Test Example 3, FIG. 3, 3 mg/kg body weight): significantly suppressed the auricular thickening
auricular thickening (difference in auricular thickness between Day 0 and Day 4) compared with 0.5% MC [5]: significantly suppressed the auricular thickening
auricular thickening (difference in auricular thickness between Day 0 and Day 4) compared with 0.5% MC [4]: significantly suppressed the auricular thickening
auricular thickening (difference in auricular thickness between Day 0 and Day 4) compared with 0.5% MC [6]: significantly suppressed the auricular thickening

CCOc1cc([C@@H](CS(C)(=O)=O)N2C(=O)c3cccc(NC(C)=O)c3C2=O)ccc1OC [APR, Apremilast]
auricular thickening (difference in auricular thickness between Day 0 and Day 4) compared with 0.5% MC (Test Example 1, FIG. 1, 10 mg/kg body weight): significantly suppressed the auricular thickening
auricular thickening (difference in auricular thickness between Day 0 and Day 4) compared with 0.5% MC (Test Example 3, FIG. 3, 10 mg/kg body weight): significantly suppressed the auricular thickening
auricular thickening (difference in auricular thickness between Day 0 and Day 4) compared with 0.5% MC (Test Example 4, FIG. 4, 10 mg/kg body weight): significantly suppressed the auricular thickening
auricular thickening (difference in auricular thickness between Day 0 and Day 4) compared with 0.5% MC (Test Example 5, FIG. 5, 10 mg/kg body weight): significantly suppressed the auricular thickening
auricular thickening (difference in auricular thickness between Day 0 and Day 4) compared with 0.5% MC (Test Example 6, FIG. 6, 10 mg/kg body weight): significantly suppressed the auricular thickening
auricular thickening (difference in auricular thickness between Day 0 and Day 4) compared with 0.5% MC (Test Example 7, FIG. 7, 10 mg/kg body weight): significantly suppressed the auricular thickening

CC(C)n1c(=O)c(C(=O)N[C@H]2C[C@H]3CC[C@@H](C2)N3C[C@@H](O)CN(C)S(C)(=O)=O)cc2ccccc21 [VRG, Velusetrag]
auricular thickening (difference in auricular thickness between Day 0 and Day 4) compared with 0.5% MC [1]: significantly suppressed the auricular thickening at all doses
auricular thickening (difference in auricular thickness between Day 0 and Day 4) compared with 0.5% MC [5]: significantly suppressed the auricular thickening
